Drawing on ChEMBL document CHEMBL1135107, “Synthesis and evaluation of new antimalarial analogues of quinoline alkaloids derived from Cinchona ledgeriana Moens ex Trimen” (Bioorg Med Chem Lett, 2002), this text covers IC50 for 16 molecules.

Experiment [1] has as its system Plasmodium falciparum. Kind of experiment: In vitro inhibition of parasite development of Plasmodium falciparum W2 in human erythrocytes. The experiment is classed as functional, organism-based.
Experiment [2] deals with Plasmodium falciparum. Kind of experiment: In vitro antimalarial activity against Plasmodium falciparum W2 in human erythrocytes by [3H]hypoxanthine uptake. The experiment is classed as functional, organism-based.

The term IC50 denotes the concentration that gives 50% inhibition. A high value points to a need for much substance.

For the molecule `C=C[C@H]1C[N@+]2(Cc3cc(C(C)(C)C)c(OC)c(C(C)(C)C)c3)CC[C@H]1C[C@@H]2[C@@H](OCc1ccccc1)c1ccnc2ccc(OC)cc12`, the concentration for half-maximal inhibition (IC50) with Plasmodium falciparum [1] (Plasmodium falciparum) is 0.1 µM; with Plasmodium falciparum [2] (Plasmodium falciparum), 0.41 µM.
On to `C=C[C@H]1C[N@+]2(Cc3cc(C(C)(C)C)c(OC)c(C(C)(C)C)c3)CC[C@H]1C[C@H]2[C@H](O)c1ccnc2ccc(OC)cc12`, for which the figures for the IC50 with Plasmodium falciparum [1] (Plasmodium falciparum) and in the experiment on Plasmodium falciparum [2] (Plasmodium falciparum) were 0.099 µM and 0.38 µM, respectively.
Regarding `C=C[C@H]1C[N@+]2(Cc3cc(C(C)(C)C)c(OC)c(C(C)(C)C)c3)CC[C@H]1C[C@H]2[C@H](O)c1ccnc2ccccc12`, the IC50 is 0.16 µM in the experiment on Plasmodium falciparum [1] (Plasmodium falciparum) and 0.51 µM with Plasmodium falciparum [2] (Plasmodium falciparum).
Taken in the same sequence, the figures for `C=C[C@H]1C[N@+]2(Cc3cc(C(C)(C)C)c(OC)c(C(C)(C)C)c3)CC[C@H]1C[C@H]2[C@H](OCc1ccccc1)c1ccnc2ccccc12` were 0.063 µM and 0.52 µM.
The corresponding values for `C=C[C@H]1C[N@+]2(Cc3cc(C(C)(C)C)c(OC)c(C(C)(C)C)c3)CC[C@H]1C[C@@H]2[C@@H](O)c1ccnc2ccc(OC)cc12` are 0.51 µM and 1 µM.
Taken in the same sequence, the figures for `C=C[C@H]1C[N@+]2(Cc3cc(C(C)(C)C)c(OC)c(C(C)(C)C)c3)CC[C@H]1C[C@H]2[C@H](OCc1ccccc1)c1ccnc2ccc(OC)cc12` were 0.15 µM and 0.62 µM.
Consider `C=CCO[C@@H](c1ccnc2ccc(OC)cc12)[C@H]1C[C@@H]2CC[N@@+]1(Cc1cc(C(C)(C)C)c(OC)c(C(C)(C)C)c1)C[C@@H]2C=C`, for which the IC50 was found to be 0.23 µM in the experiment on Plasmodium falciparum [1] (Plasmodium falciparum) and 1.2 µM with Plasmodium falciparum [2] (Plasmodium falciparum).
Taken in the same sequence, the figures for `C=C[C@H]1C[N@+]2(Cc3cc(C(C)(C)C)c(OC)c(C(C)(C)C)c3)CC[C@H]1C[C@@H]2[C@@H](OCc1ccccc1)c1ccnc2ccccc12` were 0.12 µM and 1.1 µM.
Taken in the same sequence, the figures for `C=CCO[C@H](c1ccnc2ccc(OC)cc12)[C@@H]1C[C@@H]2CC[N@@+]1(Cc1cc(C(C)(C)C)c(OC)c(C(C)(C)C)c1)C[C@@H]2C=C` were 0.41 µM and 1 µM.
Taken in the same sequence, the figures for `C=CCO[C@H](c1ccnc2ccccc12)[C@@H]1C[C@@H]2CC[N@@+]1(Cc1cc(C(C)(C)C)c(OC)c(C(C)(C)C)c1)C[C@@H]2C=C` were 0.58 µM and 1.1 µM.
Regarding `C=C[C@H]1C[N@+]2(Cc3cc(C(C)(C)C)c(OC)c(C(C)(C)C)c3)CC[C@H]1C[C@@H]2[C@@H](O)c1ccnc2ccccc12` (stereo in doubt; form 1), the values for the IC50 in the experiment on Plasmodium falciparum [1] and with Plasmodium falciparum [2] were 0.53 µM and 0.8 µM, respectively.
The corresponding values for `C=C[C@H]1C[N@+]2(Cc3cc(C(C)(C)C)c(OC)c(C(C)(C)C)c3)CC[C@H]1C[C@@H]2[C@@H](O)c1ccnc2ccccc12` (stereo in doubt; form 2) are 0.16 µM and 0.36 µM.
In the case of `C=C[C@H]1CN2CC[C@H]1C[C@H]2[C@H](O)c1ccnc2ccccc12` [CINCHONIDINE], the IC50 with Plasmodium falciparum [1] (Plasmodium falciparum) amounted to 0.29 µM; in the experiment on Plasmodium falciparum [2] (Plasmodium falciparum), 0.38 µM.
For `C=C[C@H]1CN2CC[C@H]1C[C@@H]2[C@@H](O)c1ccnc2ccccc12` [CINCHONINE], the IC50 with Plasmodium falciparum [1] (Plasmodium falciparum) was determined as 0.051 µM; in the experiment on Plasmodium falciparum [2] (Plasmodium falciparum), 0.22 µM.
The corresponding values for `C=C[C@H]1CN2CC[C@H]1C[C@@H]2[C@@H](O)c1ccnc2ccc(OC)cc12` [QUINIDINE] are 0.004 µM and 0.16 µM.
The corresponding values for `C=C[C@H]1CN2CC[C@H]1C[C@H]2[C@H](O)c1ccnc2ccc(OC)cc12` [QUININE] are 0.12 µM and 0.37 µM.
